The results in this text go back to PubChem BioAssay AID504755 (Southern Research Specialized Biocontainment Screening …, 2011).

The source made the active and inactive calls.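 The calls were made as follows: active = viability under 80% of untreated control mean at any tested dose, taken as cytotoxic; inactive = the rest.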

The test relates to PC3 viability, CellTiter-Glo luminescence, 72 h. Kind of test: viability loss in PC3 cells – cell-based, selected hits, cytotoxicity control for HSV oncolysis enhancer project, dose response (AID 504755).

For `COc1cc(C(=O)OCCCN2CCCNCC2)cc(OC)c1OC`, the CC50 is > 100 µM (inactive).

Take `COc1cc(C(=O)OCCN2CCCN(C)CC2)cc(OC)c1OC`: the CC50 was > 100 µM (inactive). For `COc1cc(C(=O)OCCN2CCN(C)CC2)cc(OC)c1OC` the value was > 100 µM (inactive). To `CNCCN(C)CCOC(=O)c1cc(OC)cc(OC)c1` belongs > 100 µM (inactive).

Take `COc1cc(OC)cc(C(=O)OCCN2CCN(C)CC2)c1`: the CC50 was > 100 µM (inactive). To `COc1cc(C(=O)OCCCN2CCN(CCCOC(=O)c3cc(OC)c(OC)c(OC)c3)CC2)cc(OC)c1OC` belongs > 100 µM (inactive); to `COc1cccc(C(=O)NCCCN2CCN(CCCNC(=O)c3cccc(OC)c3)CC2)c1`, > 100 µM (inactive). For the molecule `COc1ccc(C(=O)OCCCN2CCCC2)cc1`, the CC50 was > 100 µM (inactive). As for `COc1cc(C(=O)OCCCN(C)CCN(C)CCCOC(=O)c2cc(OC)c(OC)c(OC)c2)cc(OC)c1OC`, the CC50 is > 100 µM (inactive). For `COc1cc(C(=O)OCCN2CCCN(CCOC(=O)c3cc(OC)c(OC)c(OC)c3)CC2)cc(OC)c1OC` the value was > 100 µM (inactive). To `COc1cc(C(=O)OCCCN2CCCN(CCCOC(=O)c3cc(OC)c(OC)c(OC)c3)CC2)cc(OC)c1OC` belongs > 100 µM (inactive).

For `COc1cc(OC)cc(C(=O)OCCCN2CCCN(Cc3ccccc3)CC2)c1`, the CC50 was > 100 µM (inactive). To `COc1cc(OC)cc(C(=O)OCCN2CCCN(CCOC(=O)c3cc(OC)cc(OC)c3)CC2)c1` belongs > 100 µM (inactive); to `COc1cc(OC)cc(C(=O)OCCCN2CCN(C)CC2)c1`, > 100 µM (inactive); to `COc1ccc(C(=O)OCCN2CCCN(C)CC2)cc1`, > 100 µM (inactive). To `COc1cc(OC)cc(C(=O)OCCN2CCCN(C)CC2)c1` belongs > 100 µM (inactive). To `CN1CCCN(CCCOC(=O)c2ccc(F)cc2)CC1` belongs > 100 µM (inactive).

For `COc1ccc(C(=O)OCCCN2CCN(C)CC2)cc1`, the CC50 was > 100 µM (inactive). Take `COc1ccc(C(=O)OCCCN2CCCN(C)CC2)cc1`: the CC50 was > 100 µM (inactive). For `CN1CCN(CCCOC(=O)c2ccc(F)cc2)CC1` the value was > 100 µM (inactive); for `COc1cc(-c2cn(CCCN3CCCN(CCCn4cc(-c5cc(OC)c(OC)c(OC)c5)nn4)CC3)nn2)cc(OC)c1OC`, > 100 µM (inactive). For `COc1cc(C(=O)OCCCN2CCCN(C(=O)c3ccccc3)CC2)cc(OC)c1OC` the value was > 100 µM (inactive); for `COc1cc(C(=O)OCCCN2CCCC2)cc(OC)c1OC`, > 100 µM (inactive); for `NCCCN1CCCN(CCCN)CC1`, > 100 µM (inactive).

`COc1cc(OC)cc(C(=O)OCCCN2CCCN(C)CC2)c1`: the CC50 was > 100 µM (inactive). Turning to `O=C(CCN1CCCN(CCC(=O)Nc2ccccc2)CC1)Nc1ccccc1`, the CC50 was > 100 µM (inactive). To `COc1cc(C(=O)OCCN2CCN(CCOC(=O)c3cc(OC)c(OC)c(OC)c3)CC2)cc(OC)c1OC` belongs > 100 µM (inactive); to `COc1ccc(C(=O)NCCCN2CCCN(C)CC2)cc1`, > 100 µM (inactive); to `COc1ccc(C(=O)OCCN2CCCN(CCOC(=O)c3ccc(OC)cc3)CC2)cc1`, > 100 µM (inactive). On to `O=C(OCCCN1CCN(CCCOC(=O)c2ccc(F)cc2)CC1)c1ccc(F)cc1`, for which the CC50 is > 100 µM (inactive). On to `COc1cc(OC)cc(C(=O)OCCN2CCN(CCOC(=O)c3cc(OC)cc(OC)c3)CC2)c1`, for which the CC50 is > 100 µM (inactive).

Regarding `CNCCN(C)CCOC(=O)c1cc(OC)c(OC)c(OC)c1`, the CC50 was > 100 µM (inactive). For `COc1cc(C(=O)OCCN2CCCC2)cc(OC)c1OC` the value was > 100 µM (inactive). As to `COc1cc(C(=O)OCCCN2CCCN(C)CC2)cc(OC)c1OC`, the CC50 is > 100 µM (inactive).

`CC(=O)NCCCN1CCCN(CCCNC(C)=O)CC1`: the CC50 was > 100 µM (inactive).

For `CN1CCCN(CCCOC(=O)c2ccccc2)CC1`, the CC50 is > 100 µM (inactive). For `CNCCN(C)CCCOC(=O)c1ccc(OC)cc1` the value was > 100 µM (inactive); for `COc1cc(C(=O)OCCCN2CCOCC2)cc(OC)c1OC`, > 100 µM (inactive). For `COc1ccc(C(=O)OCCCNCCNCCCOC(=O)c2ccc(OC)cc2)cc1` the value was 24.1 µM; for `COc1cc(C(=O)OCCCN2CCCN(C(=O)OC(C)(C)C)CC2)cc(OC)c1OC`, > 100 µM (inactive). For the molecule `COc1cc(OC)cc(C(=O)OCCCNCCNCCCOC(=O)c2cc(OC)cc(OC)c2)c1`, the CC50 was 31.7 µM.

In the case of `COc1cc(C(=O)OCCN2CCCN(Cc3ccccc3)CC2)cc(OC)c1OC`, the CC50 was > 100 µM (inactive). For `COc1cc(C(=O)OCCCN2CCN(C)CC2)cc(OC)c1OC` the value was > 100 µM (inactive); for `CN1CCN(CCCOC(=O)c2ccccc2)CC1`, > 100 µM (inactive). Turning to `O=C(OCCCN1CCOCC1)c1ccc(F)cc1`, the CC50 is > 100 µM (inactive). For `CNCCN(C)CCCOC(=O)c1ccc(F)cc1`, the CC50 is > 100 µM (inactive). To `COc1cc(C(=O)OCCN2CCOCC2)cc(OC)c1OC` belongs > 100 µM (inactive); to `O=C(OCCCN1CCN(CCCOC(=O)c2ccccc2)CC1)c1ccccc1`, > 100 µM (inactive). Consider `COc1cc(C(=O)N2CCCN(C(=O)c3cc(OC)c(OC)c(OC)c3)CC2)cc(OC)c1OC`, for which the CC50 is > 100 µM (inactive). In the case of `COc1cc(COCCCN2CCCN(CCCOCc3cc(OC)c(OC)c(OC)c3)CC2)cc(OC)c1OC`, the CC50 was > 100 µM (inactive). For `COc1cc(OC)cc(C(=O)OCCN2CCOCC2)c1` the value was > 100 µM (inactive); for `COc1ccc(C(=O)OCCCN2CCN(CCCOC(=O)c3ccc(OC)cc3)CC2)cc1`, > 100 µM (inactive). On to `COc1cc(C(=O)OCCCN2CCCN(C(C)=O)CC2)cc(OC)c1OC`, for which the CC50 is > 100 µM (inactive). Regarding `COc1cc(NC(=O)N2CCCN(C(=O)Nc3cc(OC)c(OC)c(OC)c3)CC2)cc(OC)c1OC`, the CC50 is > 100 µM (inactive). For `COc1ccc(C(=O)OCCN2CCCN(Cc3ccccc3)CC2)cc1` the value was > 100 µM (inactive). For `COc1ccc(C(=O)OCCN2CCN(C)CC2)cc1` the value was > 100 µM (inactive); for `COc1cc(OC)cc(C(=O)OCCCN2CCN(CCCOC(=O)c3cc(OC)cc(OC)c3)CC2)c1`, 102 µM; for `O=C(CN1CCCN(CC(=O)CN2C(=O)c3ccccc3C2=O)CC1)CN1C(=O)c2ccccc2C1=O`, > 100 µM (inactive). For `COc1cc(CN2CCCN(Cc3cc(OC)c(OC)c(OC)c3)CC2)cc(OC)c1OC` the value was > 100 µM (inactive); for `O=C(OCCCN1CCCN(CCCOC(=O)c2ccc(F)cc2)CC1)c1ccc(F)cc1`, 73.6 µM; for `COc1cc(NC(=O)Nc2cc(OC)c(OC)c(OC)c2)cc(OC)c1OC`, > 100 µM (inactive).

Turning to `O=C(NCCCN1CCN(CCCNC(=O)c2ccc3c(c2)OCO3)CC1)c1ccc2c(c1)OCO2`, the CC50 is > 100 µM (inactive). For `COc1ccc(C(=O)OCCN2CCN(CCOC(=O)c3ccc(OC)cc3)CC2)cc1`, the CC50 was > 100 µM (inactive).

As to `COc1cc(OC)cc(C(=O)OCCN2CCCC2)c1`, the CC50 was > 100 µM (inactive). For `COc1ccc(N2C(=O)CC(N3CCCN(C4CC(=O)N(c5ccc(OC)cc5)C4=O)CC3)C2=O)cc1` (stereo not drawn) the value was > 100 µM (inactive); for `COc1ccc(C(=O)OCCCN2CCOCC2)cc1`, > 100 µM (inactive); for `O=C(/C=C/c1ccc2c(c1)OCO2)N1CCCN(C(=O)/C=C/c2ccc3c(c2)OCO3)CC1`, > 100 µM (inactive). For `COc1cc(C(=O)NCCCN2CCCN(CCCNC(=O)c3cc(OC)c(OC)c(OC)c3)CC2)cc(OC)c1OC` the value was > 100 µM (inactive).

The CC50 is the concentration that lowers cell viability or growth by half.
